The record followed here is PubChem BioAssay (NCI).

Among the test systems are HS 578T breast; OVCAR-5 ovarian; T-47D breast; SF-539 CNS; M14 melanoma; EKVX NSCLC; SF-268 CNS; NCI-H460 lung; SK-OV-3 ovarian; 786-0 renal; UO-31 renal.
What all share (assay): NCI-60 cell line screen, 48 h

The structures appear in SMILES notation.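 Five compound concentrations were applied to cells in 96-well plates for 48 hours; endpoints were derived by simple linear interpolation of the resulting dose-response curve. TGI is the concentration that stops growth completely.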 Where a SMILES comes first, the peptide text is derived from it. The star is where a group is joined. Cbz = O=C(OCc1ccccc1)*; Boc = CC(C)(C)OC(=O)*; OSu = O=C1CCC(=O)N1O*; Bn = c1ccc(C*)cc1 A value given as a limit tells only on which side of the number the result lay.

For the compound `COc1cc2c(cc1OC)C(=O)N(c1ccc(OCCN3CCCC3)cc1)C2=O`, the TGI with HS 578T breast, in the experiment on OVCAR-5 ovarian, in the experiment on T-47D breast, in the experiment on SF-539 CNS, with M14 melanoma and in the experiment with EKVX NSCLC was over 100 µM each time. The TGI in the experiment with SF-268 CNS, in the experiment with NCI-H460 lung, in the experiment on SK-OV-3 ovarian and in the experiment on 786-0 renal was over 100 µM throughout.

In the case of `O=C(O)C1(C(O)c2ccccc2)SCCCS1` (stereo not given), the TGI in the experiment on HS 578T breast, in the experiment with OVCAR-5 ovarian, with T-47D breast, in the experiment on SF-539 CNS, in the experiment with M14 melanoma and in the experiment on EKVX NSCLC was over 10 µM each time. Besides, the TGI with SF-268 CNS, with NCI-H460 lung, in the experiment with UO-31 renal, in the experiment on SK-OV-3 ovarian and in the experiment on 786-0 renal was over 10 µM throughout.

As to `CC(C)(C)OC(=O)NC(Cc1ccc(OCc2ccccc2)cc1)C(=O)NC(CCCCNC(=O)OCc1ccccc1)C(=O)NC(CCCCNC(=O)OCc1ccccc1)C(=O)ON1C(=O)CCC1=O` (stereo not given) (Boc-Tyr(Bn)-Lys(Cbz)-Lys(Cbz)-OSu; configuration not given here), the TGI is 49 µM with HS 578T breast; over 100 µM in the experiment with OVCAR-5 ovarian; over 100 µM in the experiment on T-47D breast; over 100 µM with M14 melanoma; over 100 µM in the experiment on EKVX NSCLC; over 100 µM in the experiment with SF-268 CNS. Also, the TGI was over 100 µM in the experiment on NCI-H460 lung, over 100 µM in the experiment with UO-31 renal, over 100 µM with SK-OV-3 ovarian and 37.1 µM in the experiment with 786-0 renal.

`CCOC(=O)C1C(c2ccc(OC)cc2)c2c([nH]n(-c3ccccc3)c2=O)CC1(C)O` (stereo not given): the TGI in the experiment with HS 578T breast, with OVCAR-5 ovarian, in the experiment with T-47D breast, with SF-539 CNS, in the experiment on M14 melanoma and with EKVX NSCLC was over 100 µM each time. Also, the TGI in the experiment with SF-268 CNS, in the experiment on NCI-H460 lung, in the experiment with UO-31 renal and in the experiment on 786-0 renal was over 100 µM throughout.

Turning to `COc1ccc(/C=N/Nc2nnc3c(n2)c2ccccc2c2nn(-c4ccccc4Cl)nc23)cc1`, the TGI with HS 578T breast, in the experiment with OVCAR-5 ovarian, in the experiment with T-47D breast, in the experiment with M14 melanoma, with EKVX NSCLC and in the experiment on SF-268 CNS was over 100 µM throughout. The TGI in the experiment with UO-31 renal, in the experiment with SK-OV-3 ovarian and in the experiment with 786-0 renal was over 100 µM each time.

Consider `CSc1nc[nH]c1C(N)=S`, for which the TGI in the experiment with HS 578T breast, in the experiment on OVCAR-5 ovarian, with T-47D breast, in the experiment with SF-539 CNS, in the experiment with M14 melanoma and in the experiment with EKVX NSCLC was over 100 µM in each case. Further, the TGI in the experiment on SF-268 CNS, in the experiment with UO-31 renal, in the experiment with SK-OV-3 ovarian and in the experiment with 786-0 renal was over 100 µM throughout.

As for `CC[C@]1(Cc2ccc(OC)c(OC)c2)C=[N+]([O-])O[C@H](OC2CCCC2(c2ccccc2)c2ccccc2)[C@@H]1OC(=O)C(C)(C)C` (stereo not given in full), the TGI in the experiment on HS 578T breast was 28.7 µM; with OVCAR-5 ovarian it was over 39.9 µM; with T-47D breast, 7.04 µM; in the experiment with M14 melanoma, over 40.8 µM; in the experiment with EKVX NSCLC, 22.3 µM; in the experiment with SF-268 CNS it was over 32.5 µM. Moreover, the TGI with NCI-H460 lung was 6.92 µM; with UO-31 renal, 3.97 µM; in the experiment with SK-OV-3 ovarian it was over 86.1 µM; in the experiment with 786-0 renal, 5.31 µM.

`CC(=O)N1c2cc(N=NN(C)C)ccc2NC(=O)CC1C` (stereo not given): the TGI in the experiment on HS 578T breast, in the experiment with OVCAR-5 ovarian, in the experiment with T-47D breast, in the experiment with M14 melanoma, in the experiment with EKVX NSCLC and with SF-268 CNS was over 100 µM in each case. Moreover, the TGI in the experiment on NCI-H460 lung, in the experiment with UO-31 renal, in the experiment on SK-OV-3 ovarian and in the experiment on 786-0 renal was over 100 µM in each case.

With `C=CCOC(=O)N1c2ccc(O)cc2[C@@]23O[C@@]24[C@@H]1C#C/C=C\C#C[C@]3(O)C(=O)C[C@@H]4C`, the TGI in the experiment on HS 578T breast, in the experiment on OVCAR-5 ovarian, in the experiment on T-47D breast, in the experiment on SF-539 CNS, in the experiment on M14 melanoma and in the experiment on EKVX NSCLC was over 100 µM throughout. Further, the TGI in the experiment with SF-268 CNS, in the experiment on NCI-H460 lung, in the experiment with UO-31 renal and in the experiment with 786-0 renal was over 100 µM throughout.

Take `COc1ccc(/C=N/NC(=S)Nc2cc(C)ccc2OC)cc1`: the TGI in the experiment on HS 578T breast is over 100 µM; in the experiment with OVCAR-5 ovarian it was 73 µM; in the experiment on T-47D breast it was over 100 µM; in the experiment on SF-539 CNS, 49.3 µM; in the experiment with M14 melanoma it was 65.6 µM; in the experiment with EKVX NSCLC it was 59.5 µM. The TGI was over 100 µM in the experiment on SF-268 CNS, over 100 µM with UO-31 renal, over 100 µM with SK-OV-3 ovarian and 70.9 µM with 786-0 renal.

In the case of `COc1ccc2c(c1)CC[C@@H]1C2CC[C@]2(C)C(=C=CP(=O)(O)O)CCC12` (stereo not given in full), the TGI in the experiment with HS 578T breast, in the experiment on OVCAR-5 ovarian, with T-47D breast, in the experiment on SF-539 CNS, with M14 melanoma and in the experiment with EKVX NSCLC was over 100 µM in each case. In addition, the TGI in the experiment with SF-268 CNS, in the experiment on NCI-H460 lung, with SK-OV-3 ovarian and in the experiment on 786-0 renal was over 100 µM in each case.

With `COc1cccc(CCCNC(=O)Cc2ccccc2CO)c1`, the TGI with HS 578T breast, in the experiment with OVCAR-5 ovarian, in the experiment with T-47D breast, in the experiment on SF-539 CNS, in the experiment on M14 melanoma and in the experiment on EKVX NSCLC was over 100 µM throughout. Moreover, the TGI in the experiment on NCI-H460 lung, in the experiment with UO-31 renal, in the experiment with SK-OV-3 ovarian and with 786-0 renal was over 100 µM throughout.

As to `CSc1nc(C)c2c(n1)N(c1ccc(Cl)cc1)CC2`, the TGI in the experiment with HS 578T breast, with OVCAR-5 ovarian, in the experiment with T-47D breast, in the experiment with SF-539 CNS, in the experiment with M14 melanoma and in the experiment on EKVX NSCLC was over 100 µM throughout. Besides, the TGI with SF-268 CNS, in the experiment on NCI-H460 lung, in the experiment with SK-OV-3 ovarian and in the experiment with 786-0 renal was over 100 µM in each case.
